Experimental data as given in ChEMBL document CHEMBL1139816, “Melanocortin subtype 4 receptor agonists: structure-activity relationships about the 4-alkyl piperidine core” (Bioorg Med Chem Lett, 2007).

Columns and labels:
Melanocortin receptor 4 [1] = molecular target: T1, Melanocortin receptor 4 (Homo sapiens, UniProt P32245); assay: Binding affinity to human MC4R
Melanocortin receptor 4 [2] = molecular target: T1, Melanocortin receptor 4; assay: […] at human MC4R assessed as stimulation of cAMP production; type: functional; design: concentration or dose not given beside the values
Melanocortin receptor 3 = Melanocortin receptor 3 (Homo sapiens, UniProt P41968); assay: […] at human MC3R assessed as stimulation of cAMP production; type: functional; design: concentration or dose not given beside the values
Melanocortin receptor 5 = Melanocortin receptor 5 (Homo sapiens, UniProt P33032); assay: […] at human MC5R assessed as stimulation of cAMP production; type: functional; design: concentration or dose not given beside the values
Homo sapiens [3] = organism: Homo sapiens; assay: Ratio of EC50 for human MC5R to EC50 for human MC4R
Homo sapiens [4] = organism: Homo sapiens; assay: Ratio of EC50 for human MC3R to EC50 for human MC4R

Sequence of Melanocortin receptor 5 (P33032 whole entry): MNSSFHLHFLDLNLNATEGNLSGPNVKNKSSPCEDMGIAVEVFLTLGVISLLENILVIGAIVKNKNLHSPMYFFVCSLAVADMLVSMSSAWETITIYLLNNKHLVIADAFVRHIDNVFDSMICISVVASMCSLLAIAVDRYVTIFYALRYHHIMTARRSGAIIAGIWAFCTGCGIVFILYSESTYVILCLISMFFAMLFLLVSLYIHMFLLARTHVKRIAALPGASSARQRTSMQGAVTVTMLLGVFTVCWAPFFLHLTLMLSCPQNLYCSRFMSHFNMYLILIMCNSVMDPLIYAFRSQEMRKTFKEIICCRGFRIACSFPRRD
Sequence of Melanocortin receptor 3 (P41968 whole entry): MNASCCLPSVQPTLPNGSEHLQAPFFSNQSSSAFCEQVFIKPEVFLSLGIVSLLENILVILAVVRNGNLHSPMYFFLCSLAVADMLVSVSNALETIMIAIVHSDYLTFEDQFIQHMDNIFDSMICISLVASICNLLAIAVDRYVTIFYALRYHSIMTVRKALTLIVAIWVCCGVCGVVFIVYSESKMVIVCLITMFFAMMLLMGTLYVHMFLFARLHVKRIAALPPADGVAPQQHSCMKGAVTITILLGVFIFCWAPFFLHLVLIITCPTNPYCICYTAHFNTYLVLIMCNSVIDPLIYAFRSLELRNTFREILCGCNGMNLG
T1 sequence (P32245 whole entry): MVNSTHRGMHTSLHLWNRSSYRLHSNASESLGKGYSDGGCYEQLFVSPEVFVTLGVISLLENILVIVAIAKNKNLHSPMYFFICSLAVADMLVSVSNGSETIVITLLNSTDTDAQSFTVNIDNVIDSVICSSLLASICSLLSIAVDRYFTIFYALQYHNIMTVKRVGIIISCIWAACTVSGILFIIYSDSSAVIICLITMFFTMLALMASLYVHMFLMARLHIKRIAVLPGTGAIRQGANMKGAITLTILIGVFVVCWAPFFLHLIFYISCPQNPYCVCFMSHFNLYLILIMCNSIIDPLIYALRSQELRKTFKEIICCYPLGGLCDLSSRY

Structure (SMILES) | IC50 (Melanocortin receptor 4 [1]) [nM] | Activity (Melanocortin receptor 4 [2]) [%] | EC50 (Melanocortin receptor 4 [2]) [nM] | Activity (Melanocortin receptor 3) [%] | EC50 (Melanocortin receptor 3) [nM] | Activity (Melanocortin receptor 5) [%] | EC50 (Melanocortin receptor 5) [nM] | Selectivity ratio (Homo sapiens [3]) | Selectivity ratio (Homo sapiens [4])
CCC1(CC#N)CCN(C(=O)[C@H](Cc2ccc(Cl)cc2)NC(=O)[C@H]2Cc3ccccc3CN2)CC1 | 759 | – | – | – | – | – | – | – | –
CN1CCN[C@@H](C(=O)N[C@@H](Cc2ccc(F)cc2)C(=O)N2CCC(C(=O)NC(C)(C)C)(C3CCCCC3)CC2)C1 | 13.6 | 98 | 6.5 | – | – | 31 | 977 | – | –
CN1CCN[C@@H](C(=O)N[C@@H](Cc2ccc(F)cc2)C(=O)N2CCC(CC3CC3)(C(=O)NC(C)(C)C)CC2)C1 | 840 | 54 | 2170 | – | – | – | – | – | –
CC1CCC(C2(C(=O)NC(C)(C)C)CCN(C(=O)[C@H](Cc3ccc(F)cc3)NC(=O)[C@H]3CN(C)CCN3)CC2)CC1 (some centres undefined) | 6.8 | 81 | 10 | 37 | 230 | 27 | 888 | – | –
CCC(C)C1(Cc2nnnn2C)CCN(C(=O)[C@H](Cc2ccc(Cl)cc2)NC(=O)[C@H]2Cc3ccccc3CN2)CC1 (some centres undefined) | 3.7 | 107 | 3.9 | 33 | 263 | 39 | 250 | – | –
CCCCCCC1(Cc2nnnn2C)CCN(C(=O)[C@H](Cc2ccc(Cl)cc2)NC(=O)[C@H]2Cc3ccccc3CN2)CC1 | 4 | 84 | 28.7 | 34 | 1000 | 15 | 684 | – | –
CN1CCN[C@@H](C(=O)N[C@@H](Cc2ccc(F)cc2)C(=O)N2CCC(C(=O)NC(C)(C)C)(C3CCC(C)(C)CC3)CC2)C1 | 162 | 87 | 546 | 42 | 241 | 19 | 1120 | – | –
CC1(CC#N)CCN(C(=O)[C@H](Cc2ccc(Cl)cc2)NC(=O)[C@H]2Cc3ccccc3CN2)CC1 | 1490 | – | – | – | – | – | – | – | –
Cn1nnnc1CC1(Cc2ccccc2)CCN(C(=O)[C@H](Cc2ccc(Cl)cc2)NC(=O)[C@H]2Cc3ccccc3CN2)CC1 | 52.3 | 70 | 111 | 17 | 840 | 20 | 1760 | – | –
CC(C)CC1(Cc2nnnn2C)CCN(C(=O)[C@H](Cc2ccc(Cl)cc2)NC(=O)[C@H]2Cc3ccccc3CN2)CC1 | 6 | 98 | 12.5 | 31 | 680 | 46 | 662 | – | –
N#CCC1(C2CC2)CCN(C(=O)[C@H](Cc2ccc(Cl)cc2)NC(=O)[C@H]2Cc3ccccc3CN2)CC1 | 173 | – | – | – | – | – | – | – | –
N#CCC1(C2CCCC2)CCN(C(=O)[C@H](Cc2ccc(Cl)cc2)NC(=O)[C@H]2Cc3ccccc3CN2)CC1 | 16.4 | 52 | 196 | – | – | 40 | 630 | – | –

Continued by falling IC50 (Melanocortin receptor 4 [1]), values first:

IC50 (Melanocortin receptor 4 [1]) [nM] | Activity (Melanocortin receptor 4 [2]) [%] | EC50 (Melanocortin receptor 4 [2]) [nM] | Activity (Melanocortin receptor 3) [%] | EC50 (Melanocortin receptor 3) [nM] | Activity (Melanocortin receptor 5) [%] | EC50 (Melanocortin receptor 5) [nM] | Selectivity ratio (Homo sapiens [3]) | Selectivity ratio (Homo sapiens [4]) | Structure (SMILES)
343 | 59 | 1770 | – | – | – | – | – | – | CN1CCN[C@@H](C(=O)N[C@@H](Cc2ccc(F)cc2)C(=O)N2CCC(C(=O)NC(C)(C)C)(C3C=CC(=O)CC3)CC2)C1 (some centres undefined)
177 | 55 | 563 | – | – | – | – | – | – | CN1CCN[C@@H](C(=O)N[C@@H](Cc2ccc(F)cc2)C(=O)N2CCC(CC3CCC3)(C(=O)NC(C)(C)C)CC2)C1
113 | 100 | 4.9 | 92 | 434 | 17 | 527 | – | – | Cn1nnnc1CC1(c2ccc(Cl)cc2)CCN(C(=O)[C@H](Cc2ccc(Cl)cc2)NC(=O)[C@H]2Cc3ccccc3CN2)CC1
66.2 | 55 | 151 | – | – | – | – | – | – | CCC(C)(C)C1(C(=O)NC(C)(C)C)CCN(C(=O)[C@H](Cc2ccc(F)cc2)NC(=O)[C@H]2CN(C)CCN2)CC1
64 | 76 | 84.6 | – | – | – | – | – | – | CN1CCN[C@@H](C(=O)N[C@@H](Cc2ccc(F)cc2)C(=O)N2CCC(C(=O)NC(C)(C)C)(C3C=CCCC3)CC2)C1 (some centres undefined)
63 | 32 | 827 | – | – | 20 | 1100 | – | – | CC(C)C1(CC#N)CCN(C(=O)[C@H](Cc2ccc(Cl)cc2)NC(=O)[C@H]2Cc3ccccc3CN2)CC1
36.6 | 79 | 57.8 | – | – | 56 | 1980 | – | – | CN1CCN[C@@H](C(=O)N[C@@H](Cc2ccc(F)cc2)C(=O)N2CCC(C(=O)NC(C)(C)C)(C3(C)CCCCC3)CC2)C1
32 | 90 | 157 | 18 | 2950 | 18 | 2950 | – | – | Cn1nnnc1CC1(C2CCOCC2)CCN(C(=O)[C@H](Cc2ccc(Cl)cc2)NC(=O)[C@H]2Cc3ccccc3CN2)CC1
22.2 | 40 | 281 | – | – | 21 | 480 | – | – | CCCCC1(CC#N)CCN(C(=O)[C@H](Cc2ccc(Cl)cc2)NC(=O)[C@H]2Cc3ccccc3CN2)CC1
6.8 | 51 | 189 | – | – | 42 | 640 | 3 | – | N#CCC1(C2CCCCC2)CCN(C(=O)[C@H](Cc2ccc(Cl)cc2)NC(=O)[C@H]2Cc3ccccc3CN2)CC1
3.6 | 76 | 21 | – | – | 27 | 380 | – | – | Cn1nnnc1CC1(CC(C)(C)C)CCN(C(=O)[C@H](Cc2ccc(Cl)cc2)NC(=O)[C@H]2Cc3ccccc3CN2)CC1
0.85 | 96 | 3.2 | 50 | 115 | 57 | 222 | 69 | 36 | Cn1nnnc1CC1(C2CCCCC2)CCN(C(=O)[C@H](Cc2ccc(Cl)cc2)NC(=O)[C@H]2Cc3ccccc3CN2)CC1
